This assay addresses T1, AGO2-MID (Homo sapiens, UniProt Q9UKV8).
T1 construct: MID domain, residues 432-578; expressed in E. coli BL21(DE3)pLysS as His6-SUMO-TEV fusion (pCold I), His6-SUMO cleaved with proTEV
As to the kind of experiment: isothermal titration calorimetry. The class given is binding. The conditions noted are these: read-out: Ka (× 10^3 M^-1) (converted). The text has this:
isothermal titration calorimetry on AGO2-MID
T1 sequence (Q9UKV8 432-578): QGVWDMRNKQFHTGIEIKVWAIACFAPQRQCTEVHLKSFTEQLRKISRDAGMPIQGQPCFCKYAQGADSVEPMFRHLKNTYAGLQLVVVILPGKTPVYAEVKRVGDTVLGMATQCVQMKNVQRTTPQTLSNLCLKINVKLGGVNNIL
Consider `Nc1ncnc2c1ncn2[C@@H]1O[C@H](COP(=O)(O)O[C@H]2[C@@H](O)[C@H](n3cnc4c(N)ncnc43)O[C@@H]2COP(=O)(O)O)[C@@H](O)[C@H]1O` [p-rArA], for which the Kd is 4.35 µM.
On to `Nc1ncnc2c1ncn2CC(=O)N[C@@H](COP(=O)(O)O)COP(=O)(O)OC[C@H]1O[C@@H](n2cnc3c(N)ncnc32)[C@H](O)[C@@H]1O` [p-sArA], for which the Kd is 139 µM.
With `Nc1ncnc2c1ncn2[C@@H]1O[C@H](COP(=O)(O)O)[C@@H](O)[C@H]1O` [AMP], the Kd is 169 µM.
The figure for `Nc1ncnc2c1ncn2CC(=O)N[C@H](CO)COP(=O)(O)OC[C@H](COP(=O)(O)O)NC(=O)Cn1cnc2c(N)ncnc21` [p-sAsA] is 169 µM.

Source of the values: publication PMC7432901, “Investigation of Strand-Selective Interaction of SNA-Modified siRNA with AGO2-MID” (International Journal of Molecular Sciences, 2020).
